Patent publication US20250302862A1, “SMALL RNA DRUG FOR INHIBITING ACTIVITY OF CANCER CELLS” (Institute of Basic Medical Sciences Chinese Academy of …, priority 2022, published 2025)

Columns and labels:
Type in all cases: cell-based, human
[1] = tested on: prostate cancer PC-3 cells; assay: Apoptosis detection (Annexin V / PI); settings: 100 nmol/L, 48 h
Procedure: 1) PC-3 cells with a cell density of more than 90% in 10 cm^2 dishes were plated in 12-well plates according to the cell growth rate, and transfected after 12 h, and the groups were divided as follows: • blank control group (4 wells): 200 uL of opti-MEM per well • negative control group (NC group) and experimental group (3 wells each): the system of each well was as follows • A. 100 uL of opti-MEM and 2 uL of iMax were mixed well for 5 min • B. 100 uL of opti-MEM and 5 uL of small RNA (final concentration 100 nmol/L) were mixed well • C. solution A and solution B were mixed well and let stand for 15 min, and then was added to each well at a 200 uL system • Note: 100 uL of nuclease-free water was added to 2 nmol of small RNA dry powder for dissolution at a storage concentration of 20 umol/L
The supernatant and cells were collected after 48 h and washed twice with pre-chilled PBS. The 4 tubes of cells in the blank control group were added respectively with: (1) 200 uL of 1× binding buffer; (2) 200 uL of 1× binding buffer and 5 uL of Annexin V stain; (3) 200 uL of 1× binding buffer and 5 uL of PI stain; (4) 200 uL of 1× binding buffer, 5 uL of Annexin V stain and 5 uL of PI stain. […] The live cell population and the position of quadrant gate were selected according to the blank control group, and then the apoptosis of the NC group and the experimental group was detected.

[2] = tested on: pancreatic cancer ASPC-1 cells; assay: Concentration-dependent proliferation inhibition, MTS; settings: gradient 0.01-100 noml/L, MTS after 48 h
Procedure: (§1) 1) Breast cancer MCF7 cells, breast cancer MDA-MB-231 cells, gastric cancer AGS cells, pancreatic cancer HS766T cells, pancreatic cancer ASPC-1 cells, and prostate cancer PC-3 cells with a cell density of more than 90% in 10 cm^2 plates were plated in 96-well according to the cell growth rate. Transfection was performed after 12 h, and the groups (3 wells per group) were divided as follows: • blank control group: 20 uL of opti-MEM • negative control group (NC group) and experimental group: • A. 10 uL of opti-MEM and 0.2 uL of iMax were mixed well for 5 min • B. 10 uL of opti-MEM and small RNA were mixed well (the concentration gradient of experimental group was set as: 0.01 noml/L, 0.03 noml/L, 0.1 noml/L, 0.39 noml/L, 0.78 noml/L, 1.56 noml/L, 3.125 noml/L, 6.25 noml/L, 12.5 noml/L, 25 noml/L, 50 noml/L, 100 noml/L; the final concentration of sRNA in NC group was 100 noml/L) • C. solution A and solution B were mixed well and let stand for 15 min, and then was added at a 20 uL system • Note: 100 uL of nuclease-free water was added to 2 nmol of small RNA dry powder for dissolution at a storage concentration of 20 umol/L
(§2) 2) Detection of cell viability: MTS detection was performed after 48 h.
(§3) Formulation of MTS detection solution was as follows: opti-MEM:MTS A solution:MTS B solution=100:20:1. After removing the supernatant, 100 uL of MTS detection solution was added to each well and incubated for 0.5-2 h. Absorbance values at wavelengths of 490 nm and 630 nm were measured in a microplate reader.
as §1, with “dishes” for “plates”, “96-well plates” for “96-well”

[3] = tested on: prostate cancer PC-3 cells; assay: as above; settings: gradient 0.01-100 noml/L, MTS after 48 h
Procedure: as §1, §2, §3
as §1, with “dishes” for “plates”, “96-well plates” for “96-well”

gastric cancer AGS cells = assay: as above; settings: gradient 0.01-100 noml/L, MTS after 48 h
Procedure: as §1, §2, §3
as §1, with “dishes” for “plates”, “96-well plates” for “96-well”

breast cancer MCF7 cells = assay: as above; settings: gradient 0.01-100 noml/L, MTS after 48 h
Procedure: as §1, §2, §3
as §1, with “dishes” for “plates”, “96-well plates” for “96-well”

[4] = tested on: pancreatic cancer HS766T cells; assay: as above; settings: gradient 0.01-100 noml/L, MTS after 48 h
Procedure: as §1, §2, §3
as §1, with “dishes” for “plates”, “96-well plates” for “96-well”

Row | Substance | apoptosis [1] | proliferation-inhibiting function (cell activity, MTS) [2] | proliferation-inhibiting function (cell activity, MTS) [3] | proliferation-inhibiting function (cell activity, MTS) (gastric cancer AGS cells) | proliferation-inhibiting function (cell activity, MTS) (breast cancer MCF7 cells) | proliferation-inhibiting function (cell activity, MTS) [4]
1 | MDM-sRNA-163: small RNA derived from Maytenus hookeri, sequence UGACUCUAGUCCGACUUUGUGAAAUGACU (listed as RNA, chemistry not given here) | promotes | concentration-dependent | concentration-dependent | concentration-dependent | concentration-dependent | concentration-dependent
2 | MDM-sRNA-39: small RNA derived from Maytenus hookeri, sequence GGGAUUGUAGUUCAAUUGGUCAGAGCACC (listed as RNA, chemistry not given here) | promotes | concentration-dependent | concentration-dependent | concentration-dependent | concentration-dependent | concentration-dependent
